Measurements: ChEMBL document CHEMBL5214906, “Novel Antiplasmodial Compounds Leveraged with Multistage Potency against the Parasite Plasmodium falciparum: In Vitro and In Vivo Evaluations and Pharmacokinetic Studies” (J Med Chem, 2021)
Calls of active or inactive are those of the source. The calls are words filed in the database; no cut-off is given here.

Experiments:
[1] = Cytotoxicity against human HepG2 cells assessed as reduction in cell viability incubated for 48 hrs by MTT assay; type: toxicity, cell-based; conditions: read-out: TC50
Plasmodium falciparum [2] = experiment: Antiplasmodial activity against Plasmodium falciparum 3D7 infected in human red blood cells assessed as inhibition of parasitemia incubated for 48 hrs by giemsa staining based light microscopic analysis; type: functional, organism-based, Red blood cell; conditions: 3D7, Erythrocyte
[3] = Therapeutic index, ratio of TC50 for cytotoxicity against human HepG2 cells to IC50 for antiplasmodial activity against Plasmodium falciparum 3D7 infected in human red blood cells; type: toxicity, cell-based; conditions: read-out: TI
Plasmodium falciparum [4] = experiment: Inhibition of Plasmodium falciparum plasmepsin X […] at 1 uM using DABCYL-G-PSFVEAPVRGG-EDANS as substrate by fluorescence based assay relative to control
Erythrocyte = experiment: Hemolytic activity against human red blood cells upto 1600 uM incubated for 1 hrs by hemolysis assay; type: toxicity, cell-based
Plasmodium falciparum [5] = experiment: Antiplasmodial activity against artemisinin partially resistant Plasmodium falciparum harbouring C580Y mutant assessed as inhibition of parasitemia; type: functional, organism-based, Red blood cell; conditions: Erythrocyte
Plasmodium falciparum [6] = experiment: Resistance index, ratio of IC50 for antiplasmodial activity against artemisinin partially resistant Plasmodium falciparum harbouring C580Y mutant to IC50 for antiplasmodial activity against Plasmodium falciparum 3D7; type: functional
Plasmodium berghei [7] = experiment: In vivo antimalarial activity against Plasmodium berghei ANKA infected in C57BL/6 mouse assessed as reduction in parasitemia at 50 mg/kg, ip administered for 4 consecutive days and measured on day 8 post-infection by giemsa staining based microscopic analysis relative to control; type: functional; parameters: scale not given: the % may be the effect or the level left; conditions: time 8 day
Plasmodium berghei [8] = experiment: In vivo antimalarial activity against GFP-expressing Plasmodium berghei infected in C57BL/6 mouse assessed as inhibition of parasite growth in thick blood smear at 50 mg/kg, ip administered for 4 days and measured upto 8 days post-infection by microscopic analysis; type: functional, organism-based; conditions: time <= 8.0 day
Plasmodium berghei [9] = experiment: In vivo antimalarial activity against GFP-expressing Plasmodium berghei infected in C57BL/6 mouse assessed as inhibition of parasite growth in thin blood smear at 50 mg/kg, ip administered for 4 days and measured upto 8 days post-infection by giemsa staining based microscopic analysis; type: functional, organism-based; conditions: time <= 8.0 day
Plasmodium berghei [10] = experiment: In vivo antimalarial activity against Plasmodium berghei ANKA infected in C57BL/6 mouse assessed as reduction in parasitemia at 50 mg/kg, ip administered for 4 days and measured at day 8 post-infection in the presence of artesunate by giemsa staining based microscopic analysis relative to control; type: functional; parameters: scale not given: the % may be the effect or the level left; conditions: time 8 day
Plasmodium berghei [11] = experiment: In vivo antimalarial activity against Plasmodium berghei ANKA strain infected in C57BL/6 mouse assessed as increase in mean survival time at 50 mg/kg, ip administered for 4 days and measured upto 30 days (reference value: 13 days); type: functional; conditions: time <= 30 day
Plasmodium berghei [12] = experiment: In vivo antimalarial activity against Plasmodium berghei ANKA strain infected in C57BL/6 mouse assessed as increase in mean survival time at 50 mg/kg, ip administered for 4 days and measured upto 30 days in the presence of artesunate (reference value: 13 days); type: functional; conditions: time <= 30 day
Plasmodium berghei [13] = experiment: Antiplasmodial activity against firefly luciferase-expressing Plasmodium berghei liver stage infected in human Huh-7 cells assessed as inhibition of parasite growth preincubated with cells for 1 hrs followed by parasite infection and […] by bioluminescence assay; type: functional, organism-based
[14] = Toxicity in C57BL/6 mouse assessed as effect on body weight at 100 to 400 mg/kg, ip measured upto 24 hrs; type: organism-based; conditions: in vivo, dose 100-400 mg/kg
[15] = Toxicity in C57BL/6 mouse assessed as effect on feeding at 100 to 400 mg/kg, ip measured upto 24 hrs; type: organism-based; conditions: in vivo, dose 100-400 mg/kg
[16] = Toxicity in C57BL/6 mouse assessed as effect on motor activity at 100 to 400 mg/kg, ip measured upto 24 hrs; type: organism-based; conditions: in vivo, dose 100-400 mg/kg
[17] = Toxicity in C57BL/6 mouse assessed as effect on total bilirubin level at 400 mg/kg, ip measured upto 24 hrs (reference value: 0.39 mg/dl); type: organism-based; conditions: in vivo
[18] = Toxicity in C57BL/6 mouse assessed as effect on direct bilirubin level at 400 mg/kg, ip measured upto 24 hrs (reference value: 0.17 mg/dl); type: organism-based; conditions: in vivo
[19] = Toxicity in C57BL/6 mouse assessed as effect on indirect bilirubin level at 400 mg/kg, ip measured upto 24 hrs (reference value: 0.22 mg/dl); type: organism-based; conditions: in vivo
[20] = Toxicity in C57BL/6 mouse assessed as effect on SGOT level in serum at 400 mg/kg, ip measured upto 24 hrs (reference value: 147.2 U/L); type: organism-based; conditions: in vivo
[21] = Toxicity in C57BL/6 mouse assessed as effect on SGPT level in serum at 400 mg/kg, ip measured upto 24 hrs (reference value: 37.59 U/L); type: organism-based; conditions: in vivo
[22] = Toxicity in C57BL/6 mouse assessed as effect on alkaline phosphatase level in serum at 400 mg/kg, ip measured upto 24 hrs (reference value: 108.3 U/L); type: organism-based; conditions: in vivo
[23] = Toxicity in C57BL/6 mouse assessed as effect on urea level at 400 mg/kg, ip measured upto 24 hrs (reference value: 44.50 mg/dl); type: organism-based; conditions: in vivo
[24] = Toxicity in C57BL/6 mouse assessed as effect on serum creatinine level at 400 mg/kg, ip measured upto 24 hrs (reference value: 0.47 mg/dl); type: organism-based; conditions: in vivo
[25] = Toxicity in C57BL/6 mouse assessed as effect on serum uric acid level at 400 mg/kg, ip measured upto 24 hrs (reference value: 2.58 mg/dl); type: organism-based; conditions: in vivo
[26] = Toxicity in C57BL/6 mouse assessed as effect on serum calcium level at 400 mg/kg, ip measured upto 24 hrs (reference value: 8.89 mg/dl); type: organism-based; conditions: in vivo
[27] = Toxicity in C57BL/6 mouse assessed as effect on serum LDH level at 400 mg/kg, ip measured upto 24 hrs; type: organism-based; conditions: in vivo
[28] = Toxicity in C57BL/6 mouse assessed as effect on total protein level at 400 mg/kg, ip measured upto 24 hrs (reference value: 6.29 gm/dl); type: organism-based; conditions: in vivo
[29] = Toxicity in C57BL/6 mouse assessed as effect on albumin level at 400 mg/kg, ip measured upto 24 hrs (reference value: 2.10 gm/dl); type: organism-based; conditions: in vivo
[30] = Toxicity in C57BL/6 mouse assessed as effect on globulin level at 400 mg/kg, ip measured upto 24 hrs (reference value: 4.19 gm/dl); type: organism-based; conditions: in vivo
[31] = Toxicity in C57BL/6 mouse assessed as effect on liver structure at 400 mg/kg, ip measured upto 24 hrs by H&E staining based histopathological analysis; type: organism-based; conditions: in vivo
[32] = Toxicity in C57BL/6 mouse assessed as effect on kidney structure at 400 mg/kg, ip measured upto 24 hrs by H&E staining based histopathological analysis; type: organism-based; conditions: in vivo
[33] = Drug recovery in C57BL/6 mouse plasma at 0.1 mg/ml; type: ADME, cell-free
Plasmodium berghei [34] = experiment: Antiplasmodial activity against Plasmodium berghei isolated from parasite-infected mouse blood assessed as reduction in number of healthy parasites in compound treated ookinete medium co-cultured with mouse blood at 0.05 to 0.45 uM by giemsa staining based analysis; type: functional, organism-based; conditions: dose 0.05-0.45 µM
Plasmodium berghei [35] = experiment: Antimalarial activity against Plasmodium berghei assessed as reduction in Plasmodium berghei oocyte formation in Anopheles stephensi mosquito midgut fed with blood isolated from compound treated parasite-infected Balb/c mouse at 200 mg/kg administered on day 1 and day 9; type: functional, organism-based; conditions: time 9.0 day
Plasmodium berghei [36] = experiment: Antimalarial activity against Plasmodium berghei infected in Balb/c mouse assessed as parasite killing at 200 mg/kg administered on day 1 and day 9 relative to control; type: functional; conditions: time 9 day
Plasmodium berghei [37] = experiment: Antimalarial activity against Plasmodium berghei assessed as reduction in oocyte burden in Anopheles stephensi mosquito midgut fed with blood isolated from compound treated parasite-infected Balb/c mouse at 200 mg/kg administered on day 1 and day 9 relative to control; type: functional; parameters: scale not given: the % may be the effect or the level left; conditions: time 9 day

O=C(N[C@@H](Cc1ccccc1)[C@@H](O)CN1CCN(Cc2ccccc2)CC1)c1ccc2ccccc2c1
CC50 at 48 h [1]: 234 µM | IC50 (Plasmodium falciparum [2]): 0.15 µM | selectivity ratio [3]: 1560 | inhibition (Plasmodium falciparum [4]): 17.7% | Activity (Erythrocyte): Non-Toxic | IC50 (Plasmodium falciparum [5]): 0.11 µM | Ratio IC50 (Plasmodium falciparum [6]): 0.72 | Activity (Plasmodium berghei [7]): 75% | Activity (Plasmodium berghei [8]): Active | Activity (Plasmodium berghei [9]): Active | Activity (Plasmodium berghei [10]): 99% | MST (Plasmodium berghei [11]): 17 days | MST (Plasmodium berghei [12]): 27 days | IC50 (Plasmodium berghei [13]): 1.56 µM | Activity [14]: Non-Toxic | Activity [15]: Non-Toxic | Activity [16]: Non-Toxic | Activity [17]: 0.28 mg/dL | Activity [18]: 0.11 mg/dL | Activity [19]: 0.17 mg/dL | Activity [20]: 123.1 U/L | Activity [21]: 22.45 U/L | Activity [22]: 41.9 U/L | Activity [23]: 49.03 mg/dL | Activity [24]: 0.77 mg/dL | Activity [25]: 2.49 mg/dL | Activity [26]: 9.24 mg/dL | Activity [27]: Non-Toxic | Activity [28]: 6.82 g/dL | Activity [29]: 2.68 g/dL | Activity [30]: 4.14 g/dL | Activity [31]: Non-Toxic | Activity [32]: Non-Toxic | Drug recovery [33]: > 87.3% | Activity (Plasmodium berghei [34]): Active | Activity (Plasmodium berghei [35]): Active | Activity (Plasmodium berghei [36]): 100% | Activity (Plasmodium berghei [37]): 80%
